Source: patent US20200222474A1, “COMPOSITIONS AND METHODS FOR INCREASING PHYTOCHEMICAL BIOAVAILABLITY AND BIOACTIVITY” (North Carolina State University, priority 2017, published 2020)

Tested on: L. acidophilus NCFM
Assay: RNA-seq transcriptional analysis of L. acidophilus NCFM growing on plant glycosides
Format: cell-based, Lactobacillus acidophilus
[1] = gene LBA0282 (Hypothetical protein)
[2] = gene LBA0327 (Replication protein)
[3] = gene LBA0328 (Hypothetical protein)
[4] = gene LBA0330 (Hypothetical protein)
[5] = gene LBA0457 (Hypothetical protein)
[6] = gene LBA0485 (Hypothetical protein)
[7] = gene LBA0486 (Hypothetical protein)
[8] = gene LBA0487 (Hypothetical protein.)
[9] = gene LBA0492 (Hypothetical protein)
[10] = gene LBA0541 (Cadmium-transporting ATPase)
[11] = gene LBA0542 (Putative heavy-metal-transporting alpase)
[12] = gene LBA0543 (Hypothetical protein)
[13] = gene LBA0544 (Transcriptional regulator)
[14] = gene LBA0555 (Myosin-crossreactive antigen)
[15] = gene LBA0564 (HAD family hydrolase)
[16] = gene LBA0574 (ABC multi drug exporter)
[17] = gene LBA0575 (ABC multi drug exporter)
[18] = gene LBA0604 (Immunity protein)
[19] = gene LBA0605 (Putative hydrolase)
[20] = gene LBA0608 (Hypothetical protein)
[21] = gene LBA0631 (Hypothetical protein)
[22] = gene LBA0649 (Myosin-crossreactive antigen)
[23] = gene LBA0728 (Hypothetical protein LBA0728)
[24] = gene LBA1025 (Aldo/keto reductase family oxidoreductase)
[25] = gene LBA1026 (Aldo/keto reduetase family oxidoreductase)
[26] = gene LBA1206 (Hypothetical protein)
[27] = gene LBA1401 (Peroxidase (Npx))
[28] = gene LBA1435 (Hypothetical protein)
[29] = gene LBA1455 (Putative surface layer protein)
[30] = gene LBA1469 (UDP-glucose 4-epimerase)
[31] = gene LBA1656 (Hypothetical protein)
[32] = gene LBA1675 (Hypothetical protein)
[33] = gene LBA1676 (ATP-dependent helicase)
[34] = gene LBA1683 (Putative magnesium-transporting atpase)
[35] = gene LBA1704 (N-Acetylmuramic acid-6-phosphate etherase)
[36] = gene LBA1740 (Hypothetical protein)
[37] = gene LBA1752 (Hypothetical protein)
[38] = gene LBA1769 (Hypothetical protein)
[39] = gene LBA1793 (Hypothetical protein)
[40] = gene LBA1869 (Beta-phosphoglueomutase)
[41] = gene LBA1895 (Hypothetical protein)
[42] = nTPM on plant glycoside relative to glucose, mid-exponential phase

SMILES: OCc1ccccc1O[C@@H]1O[C@H](CO)[C@@H](O)[C@H](O)[C@H]1O [Salicin]
- Log2 differential normalized TPM ratio compared to lactose [1]: 0
- Transcripts per million (rpm) [1]: 34.3 rpm
- Log2 differential normalized TPM ratio compared to glucose [2]: 0
- Log2 differential normalized TPM ratio compared to lactose [2]: −0.3
- Transcripts per million (rpm) [2]: 8.1 rpm
- Log2 differential normalized TPM ratio compared to glucose [3]: −0.1
- Log2 differential normalized TPM ratio compared to lactose [3]: 0
- Transcripts per million (rpm) [3]: 13.3 rpm
- Log2 differential normalized TPM ratio compared to glucose [4]: 0.4
- Log2 differential normalized TPM ratio compared to lactose [4]: 0
- Transcripts per million (rpm) [4]: 27.3 rpm
- Log2 differential normalized TPM ratio compared to glucose [5]: 1.8
- Log2 differential normalized TPM ratio compared to lactose [5]: 0.8
- Transcripts per million (rpm) [5]: 1746 rpm
- Log2 differential normalized TPM ratio compared to glucose [6]: 1.9
- Log2 differential normalized TPM ratio compared to lactose [6]: −0.5
- Transcripts per million (rpm) [6]: 770.3 rpm
- Log2 differential normalized TPM ratio compared to glucose [7]: 2.4
- Log2 differential normalized TPM ratio compared to lactose [7]: −0.4
- Transcripts per million (rpm) [7]: 1205 rpm
- Log2 differential normalized TPM ratio compared to glucose [8]: 1.5
- Log2 differential normalized TPM ratio compared to lactose [8]: 0.2
- Transcripts per million (rpm) [8]: 96.1 rpm
- Log2 differential normalized TPM ratio compared to glucose [9]: 2
- Log2 differential normalized TPM ratio compared to lactose [9]: −0.5
- Transcripts per million (rpm) [9]: 32.8 rpm
- Log2 differential normalized TPM ratio compared to glucose [10]: 2
- Log2 differential normalized TPM ratio compared to lactose [10]: −0.3
- Transcripts per million (rpm) [10]: 143.6 rpm
- Log2 differential normalized TPM ratio compared to glucose [11]: 1.8
- Log2 differential normalized TPM ratio compared to lactose [11]: −0.4
- Transcripts per million (rpm) [11]: 311.6 rpm
- Log2 differential normalized TPM ratio compared to glucose [12]: 2
- Log2 differential normalized TPM ratio compared to lactose [12]: −0.4
- Transcripts per million (rpm) [12]: 266.3 rpm
- Log2 differential normalized TPM ratio compared to glucose [13]: 1.7
- Log2 differential normalized TPM ratio compared to lactose [13]: −0.3
- Transcripts per million (rpm) [13]: 342.8 rpm
- Log2 differential normalized TPM ratio compared to glucose [14]: 1.4
- Log2 differential normalized TPM ratio compared to lactose [14]: −0.5
- Transcripts per million (rpm) [14]: 118.8 rpm
- Log2 differential normalized TPM ratio compared to glucose [15]: 0.4
- Log2 differential normalized TPM ratio compared to lactose [15]: −0.2
- Transcripts per million (rpm) [15]: 1.4 rpm
- Log2 differential normalized TPM ratio compared to glucose [16]: −0.7
- Log2 differential normalized TPM ratio compared to lactose [16]: −1
- Transcripts per million (rpm) [16]: 54.6 rpm
- Log2 differential normalized TPM ratio compared to glucose [17]: −0.5
- Log2 differential normalized TPM ratio compared to lactose [17]: −0.8
- Transcripts per million (rpm) [17]: 55.6 rpm
- Log2 differential normalized TPM ratio compared to glucose [18]: −0.1
- Log2 differential normalized TPM ratio compared to lactose [18]: −0.6
- Transcripts per million (rpm) [18]: 14.3 rpm
- Log2 differential normalized TPM ratio compared to glucose [19]: 1.2
- Log2 differential normalized TPM ratio compared to lactose [19]: 0.2
- Transcripts per million (rpm) [19]: 6.3 rpm
- Log2 differential normalized TPM ratio compared to glucose [20]: 1.4
- Log2 differential normalized TPM ratio compared to lactose [20]: 0.3
- Transcripts per million (rpm) [20]: 95.4 rpm
- Log2 differential normalized TPM ratio compared to glucose [21]: 2.9
- Log2 differential normalized TPM ratio compared to lactose [21]: −0.2
- Transcripts per million (rpm) [21]: 9342.6 rpm
- Log2 differential normalized TPM ratio compared to glucose [22]: 1.6
- Log2 differential normalized TPM ratio compared to lactose [22]: 0.8
- Transcripts per million (rpm) [22]: 116.3 rpm
- Log2 differential normalized TPM ratio compared to glucose [23]: 4.1
- Log2 differential normalized TPM ratio compared to lactose [23]: 2.3
- Transcripts per million (rpm) [23]: 43.8 rpm
- Log2 differential normalized TPM ratio compared to lactose (gene LBA0802 (Hypothetical protein)): −0.2
- Log2 differential normalized TPM ratio compared to glucose (gene LBA0861 (Polyferredoxin)): 0.1
- Log2 differential normalized TPM ratio compared to lactose (gene LBA0861 (Polyferredoxin)): −0.5
- Transcripts per million (rpm) (gene LBA0861 (Polyferredoxin)): 196.3 rpm
- Log2 differential normalized TPM ratio compared to glucose (gene LBA1023 (Oxidoreductase)): −0.4
- Log2 differential normalized TPM ratio compared to lactose (gene LBA1023 (Oxidoreductase)): −0.7
- Transcripts per million (rpm) (gene LBA1023 (Oxidoreductase)): 132.8 rpm
- Log2 differential normalized TPM ratio compared to glucose [24]: −0.4
- Log2 differential normalized TPM ratio compared to lactose [24]: −0.5
- Transcripts per million (rpm) [24]: 23.7 rpm
- Log2 differential normalized TPM ratio compared to glucose [25]: −0.3
- Log2 differential normalized TPM ratio compared to lactose [25]: −0.8
- Transcripts per million (rpm) [25]: 26.1 rpm
- Log2 differential normalized TPM ratio compared to glucose (gene LBA1027 (Oxidoreductase)): 2.2
- Log2 differential normalized TPM ratio compared to lactose (gene LBA1027 (Oxidoreductase)): 0.6
- Transcripts per million (rpm) (gene LBA1027 (Oxidoreductase)): 2726.8 rpm
- Log2 differential normalized TPM ratio compared to glucose [26]: 1.5
- Log2 differential normalized TPM ratio compared to lactose [26]: 0.3
- Transcripts per million (rpm) [26]: 391.2 rpm
- Log2 differential normalized TPM ratio compared to glucose [27]: 2.7
- Log2 differential normalized TPM ratio compared to lactose [27]: 0.6
- Transcripts per million (rpm) [27]: 466.6 rpm
- Log2 differential normalized TPM ratio compared to glucose [28]: 3.6
- Log2 differential normalized TPM ratio compared to lactose [28]: −0.2
- Transcripts per million (rpm) [28]: 52.5 rpm
- Log2 differential normalized TPM ratio compared to glucose [29]: 0.1
- Log2 differential normalized TPM ratio compared to lactose [29]: −1.6
- Transcripts per million (rpm) [29]: 18.3 rpm
- Log2 differential normalized TPM ratio compared to glucose [30]: 1.4
- Log2 differential normalized TPM ratio compared to lactose [30]: −3.6
- Transcripts per million (rpm) [30]: 235.5 rpm
- Log2 differential normalized TPM ratio compared to glucose [31]: 0.9
- Log2 differential normalized TPM ratio compared to lactose [31]: 0.3
- Transcripts per million (rpm) [31]: 38.2 rpm
- Log2 differential normalized TPM ratio compared to glucose [32]: 2
- Log2 differential normalized TPM ratio compared to lactose [32]: 0.5
- Transcripts per million (rpm) [32]: 1669.1 rpm
- Log2 differential normalized TPM ratio compared to glucose [33]: 1.7
- Log2 differential normalized TPM ratio compared to lactose [33]: 0.5
- Transcripts per million (rpm) [33]: 1070.6 rpm
- Log2 differential normalized TPM ratio compared to glucose [34]: 0.3
- Log2 differential normalized TPM ratio compared to lactose [34]: 0.5
- Transcripts per million (rpm) [34]: 20.2 rpm
- Log2 differential normalized TPM ratio compared to glucose [35]: 0.7
- Log2 differential normalized TPM ratio compared to lactose [35]: 0.1
- Transcripts per million (rpm) [35]: 11.6 rpm
- Log2 differential normalized TPM ratio compared to glucose [36]: 0.3
- Log2 differential normalized TPM ratio compared to lactose [36]: −0.5
- Transcripts per million (rpm) [36]: 23.1 rpm
- Log2 differential normalized TPM ratio compared to glucose [37]: 0.6
- Log2 differential normalized TPM ratio compared to lactose [37]: −0.3
- Transcripts per million (rpm) [37]: 13 rpm
- Log2 differential normalized TPM ratio compared to glucose [38]: 1.8
- Log2 differential normalized TPM ratio compared to lactose [38]: −0.1
- Transcripts per million (rpm) [38]: 5527.5 rpm
- Log2 differential normalized TPM ratio compared to glucose [39]: 1.2
- Log2 differential normalized TPM ratio compared to lactose [39]: −1.7
- Transcripts per million (rpm) [39]: 37.8 rpm
- Log2 differential normalized TPM ratio compared to glucose (gene LBA1796 (ABC exporter)): 1
- Log2 differential normalized TPM ratio compared to lactose (gene LBA1796 (ABC exporter)): −1.6
- Transcripts per million (rpm) (gene LBA1796 (ABC exporter)): 18.3 rpm
- Log2 differential normalized TPM ratio compared to glucose [40]: 2.4
- Log2 differential normalized TPM ratio compared to lactose [40]: −0.1
- Transcripts per million (rpm) [40]: 43.1 rpm
- Log2 differential normalized TPM ratio compared to glucose [41]: 0.7
- Log2 differential normalized TPM ratio compared to lactose [41]: 0.5
- Transcripts per million (rpm) [41]: 46.2 rpm
- Log2 Ratio vs Glc, LBA0225 Phospho-β-glucosidase (GH1) [42]: −0.1
- Log2 Ratio vs Glc, LBA0227 PTS EIIC [42]: 0.9
- Log2 Ratio vs Glc, LBA0228 Transcriptional regulator [42]: 0.1
- Log2 Ratio vs Glc, LBA0466 Phosphoenolpyruvate carboxykinase (ATP) [42]: 1.3
- Log2 Ratio vs Glc, LBA0491 PTS EIIC [42]: 1.5
- Log2 Ratio vs Glc, LBA0492 Hypothetical protein [42]: 2
- Log2 Ratio vs Glc, LBA0555 Myosin-cross-reactive antigen/Fatty acid hydratase [42]: 1.4
- Log2 Ratio vs Glc, LBA0606 PTS EIIBC [42]: 2.5
- Log2 Ratio vs Glc, LBA0631 Hypothetical protein [42]: 2.9
- Log2 Ratio vs Glc, LBA0724 Transcriptional regulator (antiterminator) [42]: 5.3
- Log2 Ratio vs Glc, LBA0725 PTS EIICBA [42]: 8.9
- Log2 Ratio vs Glc, LBA0726 Phospho-β-glucosidase (GH1) [42]: 6.2
- Log2 Ratio vs Glc, LBA0728 Hypothetical protein [42]: 4.1
- Log2 Ratio vs Glc, LBA0876 PTS EIIC [42]: 2.4
- Log2 Ratio vs Glc, LBA0877 PTS EIIA [42]: 1.3
- Log2 Ratio vs Glc, LBA1401 Peroxidase (Npx) [42]: 2.7
- Log2 Ratio vs Glc, LBA1411 Fumarate reductase flavoprotein subunit [42]: 1.4
- Log2 Ratio vs Glc, LBA1433 Dihydroxyacetone kinase [42]: 2.7
- Log2 Ratio vs Glc, LBA1434 Dihydroxyacetone kinase [42]: 3.3
- Log2 Ratio vs Glc, LBA1435 Hypothetical protein [42]: 3.6
- Log2 Ratio vs Glc, LBA1436 Glycerol uptake facilitator protein [42]: 3.8
- Log2 Ratio vs Glc, LBA1632 NAD-dependent aldehyde dehydrogenase [42]: 2
- Log2 Ratio vs Glc, LBA1684 PTS EIIA [42]: 2.6
- Log2 Ratio vs Glc, LBA1689 Maltose-6′-phosphate glucosidase (GH4) [42]: 3.7
- Log2 Ratio vs Glc, LBA1701 Melibiose operon regulatory protein [42]: 1
- Log2 Ratio vs Glc, LBA1709 Mucus binding protein precursor [42]: 0.5
- Log2 Ratio vs Glc, LBA1797 Hypothetical protein [42]: 1.3
- Log2 Ratio vs Glc, LBA1812 α-Glucosidase II (GH31) [42]: 2.2
- Log2 Ratio vs Glc, LBA1869 β-Phosphoglucomutase [42]: 2.4
- Log2 Ratio vs Glc, LBA1871 Neopullulanase (GH13) [42]: 0.9
- Log2 Ratio vs Glc, LBA1873 Acetate kinase [42]: 1.2
- Log2 Ratio vs Glc, LBA1974 Pyruvate oxidase [42]: 1.8
